Legend:
Coagulation factor X = Coagulation factor X (Homo sapiens, UniProt P00742); assay: Inhibitory activity against coagulation factor Xa
Serine protease 1 = Serine protease 1 (Homo sapiens, UniProt P07477); assay: […]
[1] = Percent compound remaining after 2 hr incubation with human S9 liver fraction; format: ADME, subcellular; details: read-out: Activity
Prothrombin [2] = biological target: T1, Prothrombin (Homo sapiens, UniProt P00734); assay: Concentration required for 50% inhibition of dilute prothrombin time; format: functional
[3] = biological target: Tissue-type plasminogen activator (Homo sapiens, UniProt P00750); assay: inhibitory activity against human tissue plasminogen activator
Prothrombin [4] = biological target: T1, Prothrombin; assay: Inhibitory activity against coagulation factor II (thrombin)
Prothrombin [5] = biological target: T1, Prothrombin; assay: Concentration required to double plasma clotting time of prothrombin time; format: functional, cell-free

Tissue-type plasminogen activator, sequence (P00750 whole entry): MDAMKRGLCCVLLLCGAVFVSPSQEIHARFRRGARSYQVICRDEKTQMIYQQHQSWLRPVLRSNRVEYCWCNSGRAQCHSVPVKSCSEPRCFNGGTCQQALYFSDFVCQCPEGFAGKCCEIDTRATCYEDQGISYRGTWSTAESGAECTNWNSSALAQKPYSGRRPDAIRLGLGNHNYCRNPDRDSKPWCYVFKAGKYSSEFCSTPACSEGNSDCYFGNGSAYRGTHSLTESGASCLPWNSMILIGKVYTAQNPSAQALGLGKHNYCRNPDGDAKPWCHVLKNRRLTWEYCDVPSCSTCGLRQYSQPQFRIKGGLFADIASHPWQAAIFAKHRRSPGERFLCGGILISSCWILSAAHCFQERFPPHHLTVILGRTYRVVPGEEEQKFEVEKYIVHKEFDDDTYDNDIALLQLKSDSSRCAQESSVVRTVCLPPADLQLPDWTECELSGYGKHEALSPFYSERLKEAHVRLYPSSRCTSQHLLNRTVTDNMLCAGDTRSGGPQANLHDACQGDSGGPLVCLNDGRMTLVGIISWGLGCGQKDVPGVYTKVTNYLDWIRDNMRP
Serine protease 1, sequence (P07477 whole entry): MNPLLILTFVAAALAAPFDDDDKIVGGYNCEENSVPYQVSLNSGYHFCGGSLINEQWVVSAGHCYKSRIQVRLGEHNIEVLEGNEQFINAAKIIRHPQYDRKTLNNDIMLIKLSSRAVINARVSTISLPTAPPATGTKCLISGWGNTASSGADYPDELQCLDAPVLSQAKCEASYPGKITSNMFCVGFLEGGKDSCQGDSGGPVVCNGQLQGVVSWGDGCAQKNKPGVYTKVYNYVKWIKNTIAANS
Coagulation factor X, sequence (P00742 41-179 limits assumed): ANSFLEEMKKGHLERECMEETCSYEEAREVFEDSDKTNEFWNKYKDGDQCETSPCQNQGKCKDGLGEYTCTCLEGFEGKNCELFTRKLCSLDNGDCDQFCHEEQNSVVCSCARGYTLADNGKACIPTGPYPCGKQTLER
Coagulation factor X, sequence (P00742 235-488 limits assumed): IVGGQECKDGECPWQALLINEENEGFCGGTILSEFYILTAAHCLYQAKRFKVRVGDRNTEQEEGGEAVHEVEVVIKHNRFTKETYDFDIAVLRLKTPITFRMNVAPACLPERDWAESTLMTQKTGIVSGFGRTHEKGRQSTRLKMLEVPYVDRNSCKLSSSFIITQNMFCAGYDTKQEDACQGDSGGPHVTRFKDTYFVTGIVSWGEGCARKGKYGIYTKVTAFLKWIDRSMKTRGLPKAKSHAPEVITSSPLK

| Ki (Coagulation factor X) [µM] | SMILES | Ki (Serine protease 1) [µM] | remaining at 2 h [1] [%] | IC50 (Prothrombin [2]) [µM] | Ki [3] [µM] | Ki (Prothrombin [4]) [µM] | also measured |
| --- | --- | --- | --- | --- | --- | --- | --- |
| 0.287 | CC(C)N1CCC(NC(=O)c2cc3ccccc3n2CC(=O)Nc2cccc(Cl)c2)CC1 |  |  |  |  |  |  |
|  | CC(C)N1CCC(NC(=O)c2cc3ccccc3n2CC(=O)Nc2ccc(Cl)cc2)CC1 | > 100 | 67 | 0.02 | > 100 | > 10 |  |
| 2.48 | COc1cccc(-n2c(C(=O)NC3CCN(C(C)C)CC3)cc3ccccc32)c1 |  |  |  |  |  |  |
| > 10 | COc1cccc(CCn2c(C(=O)NC3CCN(C(C)C)CC3)cc3ccccc32)c1 |  |  |  |  |  |  |
|  | CC(C)N1CCC(NC(=O)c2cc3ccccc3n2CC(=O)Nc2ccc(Cl)cn2)CC1 | > 100 | 95 | 0.02 | > 100 | > 10 |  |
|  | CC(C)N1CCC(NC(=O)c2cc3ccccc3n2Cc2cc3ccc(Cl)cc3s2)CC1 | > 100 | 98 | 0.89 | > 100 | 9.04 | Concentration (Prothrombin [5]): 14.1 µM |
| 2.73 | CC(C)N1CCC(NC(=O)c2cc3ccccc3n2Cc2cnc(-c3ccc(Cl)cc3)s2)CC1 |  |  |  |  |  |  |
| 9.01 | CC(C)N1CCC(NC(=O)c2cc3ccccc3n2-c2cccc(Cl)c2)CC1 |  |  |  |  |  |  |
|  | CC(C)N1CCC(NC(=O)c2cc3ccccc3n2Cc2cc(-c3ccc(Cl)s3)on2)CC1 | > 100 | 94 |  |  |  |  |
| 2.5 | CC(C)N1CCC(NC(=O)c2cc3ccccc3n2Cc2ccc(Cl)cc2)CC1 |  |  |  |  |  |  |
